Like-named read-outs stand apart in the source and are kept apart here.
Tests used:
[1] = system: ATXN2-luc; conditions: average ATXN2-luc response of H2 and S1 cells
[2] = system: ATXN2-luc
[3] = system: ATXN2-luc; experiment: Secondary assays, Bright-Glo luciferase in H2 and S2 cells; assay type: cell-based; conditions: for IC50: read-out: Mean IC50
Description: (§1) Compounds were plated at 2× concentrations in 25 μl in 384 well plates with each compound dose plated in triplicate. An equal volume of S2, H2, or SC cells (24,000 cells/well) suspended in phenol-red free Dulbecco's Modified Eagle Medium (DMEM) with 10% fetal bovine serum and 1× penicillin/streptomycin were added. Cells were grown 24 hrs then assayed first by using the CellTiter-Fluor reagent (20 μl) followed by the addition of Bright-Glo ([…]) luciferase assay, using a multimode plate reader (Beckman DT880). Values were reported as the mean±standard deviation (SD) with n=3. IC50s were determined by the Hill coefficient method using an online tool (https://www.aatbio.com/tools/ic50-calculator).
(§2) These 46 compounds were retested at 12 doses and a zero-compound dose, in multiplexed assays in 96-well plates using CellTiter-Fluor to determine cell viability, then Bright-Glo to determine luciferase expression. The values for H2 and S2 were used as replicates to calculate IC50s and to assess cell viability.
(§3) For CMV-luc and viability charts, the fitted lines are second-order polynomials. Means and SD are shown.

[4] = in vitro; conditions: human
Description: as §1, §2, §3

[5] = system: CMV-luc; experiment: Secondary assays, Bright-Glo luciferase in SC cells; assay type: cell-based; conditions: minimum CMV-luc luciferase in SC cells over 12 doses
Description: as §1, §3

[6] = system: ATXN2-luc; experiment: cells; conditions: for activity at 10 µM: read-out: Luc at 10 μm; for activity at 1 µM: read-out: Luc at 1 μm
[7] = Table 1, H2 cells, 24 hrs, single 10 μM dose, Z-score of luciferase
[8] = Table 5S, pilot screen, H2 cells, 10 μM
[9] = ATXN2-luc, Bright-Glo, H2 and S2 values used as replicates, 12 doses, 96-well plates

## CO[C@H]1[C@@H](O)[C@@H](C)O[C@@H](O[C@H]2CC[C@]3(C)[C@H]4CC[C@]5(C)[C@@H](C6=CC(=O)OC6)CC[C@]5(O)[C@@H]4CC[C@]3(O)C2)[C@@H]1O [EMICYMARIN]
[1]
  Luc at 1 μm: 115
  Luc at 10 μm: 31
[2]; [7]
  SD from Mean: −3.080 SD
[2]; [8]
  SD from Mean: −3.080 SD

## CC[C@@H](CO)Nc1nc(NCc2ccccc2)c2ncn(C(C)C)c2n1 [Roscovitine]
[3]
  min ATXN2-luc: 57.32%
[4]
  viability: 77.8%
[5]
  min SC luc: 82.45%

## CC(C)c1cc(/C=C(\C#N)C(=O)NCCCc2ccccc2)cc(C(C)C)c1O [SU1498]
[1]
  Luc at 1 μm: 22
  Luc at 10 μm: 15
[2]; [7]
  SD from Mean: −4.885 SD
[2]; [8]
  SD from Mean: −4.885 SD

## C1CCC(N=C(NC23CC4CC(CC(C4)C2)C3)N2CCOCC2)CC1.Cl [U-37883A]
[1]
  Luc at 1 μm: 94
  Luc at 10 μm: 17
[2]; [7]
  SD from Mean: −4.965 SD
[2]; [8]
  SD from Mean: −4.965 SD

## O=C1NC(=O)/C(=C/c2ccc3nccc(-c4ccncc4)c3c2)S1 [GSK-615]
[4]
  viability at 24 h: 75.5%

## C=CCn1c(=O)c2cnc(Nc3ccc(N4CCN(C)CC4)cc3)nc2n1-c1cccc(C(C)(C)O)n1 [MK-1775]
[4]
  viability at 24 h: 77.9%

## COc1ccc(CN2CCN(C(c3ccc(F)cc3)c3ccc(F)cc3)CC2)c(OC)c1OC [LOMERIZINE DiHCl]
[1]
  Luc at 1 μm: 102
[6]
  activity at 10 µM: 55%
[2]; [7]
  SD from Mean: −2.782 SD
[2]; [8]
  SD from Mean: −2.782 SD

## CC(C)c1cc(C(=O)N2Cc3ccc(CN4CCN(C)CC4)cc3C2)c(O)cc1O [Onalespib (AT-13387AU)]
[4]
  viability at 24 h: 90.6%

## C/C1=C2/[N-][C@H]([C@H](CC(N)=O)[C@@]2(C)CCC(=O)NC[C@@H](C)OP(=O)([O-])O[C@H]2[C@@H](O)[C@@H](n3cnc4cc(C)c(C)cc43)O[C@@H]2CO)[C@]2(C)N=C(/C(C)=C3N=C(/C=C4N=C1[C@@H](CCC(N)=O)C\4(C)C)[C@@H](CCC(N)=O)[C@]\3(C)CC(N)=O)[C@@H](CCC(N)=O)[C@]2(C)CC(N)=O.[Co] [COBALAMINE]
[1]
  Luc at 1 μm: 126
  Luc at 10 μm: 109
[2]; [7]
  SD from Mean: −5.111 SD
[2]; [8]
  SD from Mean: −5.111 SD

## CC(=O)O[C@H]1C[C@H](O[C@H]2[C@@H](O)C[C@H](O[C@H]3[C@@H](O)C[C@H](O[C@H]4CC[C@@]5(C)[C@H](CC[C@@H]6[C@@H]5C[C@@H](O)[C@]5(C)[C@@H](C7=CC(=O)OC7)CC[C@]65O)C4)O[C@@H]3C)O[C@@H]2C)O[C@H](C)[C@H]1O[C@@H]1O[C@H](CO)[C@@H](O)[C@H](O)[C@H]1O [LANATOSIDE C]
[1]
  Luc at 1 μm: 39
  Luc at 10 μm: 15
[2]; [7]
  SD from Mean: −4.323 SD
[2]; Table 1, H2 cells, 24 hrs, single 10 μM dose, Z-score of luciferase, listed as Lanatoside C
  SD from Mean: −3.629 SD
[2]; [8]
  SD from Mean: −4.323 SD
[2]; Table 5S, pilot screen, H2 cells, 10 μM, listed as Lanatoside C
  SD from Mean: −3.629 SD

## C[n+]1cc2c3c(ccc2c2ccc4cc5c(cc4c21)OCO5)OCO3 [Sanguinarine]
[1]
  Luc at 1 μm: 127
[6]
  activity at 10 µM: 160%
[2]; [7]
  SD from Mean: −2.689 SD
[2]; [8]
  SD from Mean: −2.689 SD

## CCN(CC)CCCCCCCCOC(=O)c1cc(OC)c(OC)c(OC)c1 [TMB-8]
[1]
  Luc at 1 μm: 66
  Luc at 10 μm: 53
[2]; [7]
  SD from Mean: −5.740 SD
[2]; [8]
  SD from Mean: −5.740 SD

## CN(C)CCN1C(=O)c2cccc3cc(N)cc(c23)C1=O [Amonafide]
[4]
  viability at 24 h: 68.2%

## S=C(NCc1ccc2c(c1)OCO2)N1CCN(c2ncnc3c2oc2ccccc23)CC1 [Amuvatinib]
[4]
  viability at 24 h: 87.7%
[5]
  min SC luc: 74.26%

## C[C@@H]1O[C@@H](O[C@H]2C[C@@H](O)[C@]3(CO)[C@H]4[C@H](O)C[C@]5(C)[C@@H](C6=CC(=O)OC6)CC[C@]5(O)[C@@H]4CC[C@]3(O)C2)[C@H](O)[C@H](O)[C@H]1O [OUABAIN]
[4]
  viability: 74.3%
[6]
  activity at 1 µM: 14%
  activity at 10 µM: 12%
[2]; [7]
  SD from Mean: −3.832 SD
[2]; [8]
  SD from Mean: −3.832 SD

## Nc1ccc(-c2ccc3ncc4ccc(=O)n(-c5cccc(C(F)(F)F)c5)c4c3c2)cn1 [Torin2]
[3]; [9]
  IC50: 257 nM
[3]; minimum ATXN2-luc luciferase over 12 doses, H2 and S2 cells
  min ATXN2-luc: 25.42%
[5]
  min SC luc: 128.4%

## CNC(=O)c1nn(C)c2c1C(C)(C)Cc1cnc(Nc3ccc(N4CCN(C)CC4)cc3)nc1-2 [Milciclib]
[4]
  viability at 24 h: 74.4%

## CC[C@@]1(O)C(=O)OCc2c1cc1n(c2=O)Cc2cc3ccccc3nc2-1 [Camptothecin]
[3]; [9]
  IC50: 40 nM
[4]; H2, S2 and SC cells
  viability at 24 h: 92.1%

## COC(=O)C1=C(C)NC(C)=C(C(=O)OCCN(C)Cc2ccccc2)C1c1cccc([N+](=O)[O-])c1 (stereo not drawn) [NICARDIPINE]
[1]
  Luc at 1 μm: 112
[6]
  activity at 10 µM: 61%
[2]; [7]
  SD from Mean: −2.782 SD
[2]; [8]
  SD from Mean: −2.782 SD

## C=CCNC1=C2C[C@@H](C)C[C@H](OC)[C@H](O)[C@@H](C)/C=C(\C)[C@H](OC(N)=O)[C@@H](OC)/C=C\C=C(/C)C(=O)NC(=CC1=O)C2=O [tanespimycin]
[3]
  IC50: 442 nM
[4]
  viability at 24 h: 83.6%

## STROPH[…] LACTONE ACETATE
[1]
  Luc at 1 μm: 37
  Luc at 10 μm: 20
[2]; [7]
  SD from Mean: −3.855 SD
[2]; [8]
  SD from Mean: −3.855 SD

## C[C@H]1O[C@@H](O[C@H]2[C@@H](O)C[C@H](O[C@H]3[C@@H](O)C[C@H](O[C@H]4CC[C@@]5(C)[C@H](CC[C@@H]6[C@@H]5C[C@@H](O)[C@]5(C)[C@@H](C7=CC(=O)OC7)CC[C@]65O)C4)O[C@@H]3C)O[C@@H]2C)C[C@H](O)[C@@H]1O [Digoxin]
[4]
  viability at 24 h: 67.9%
[6]
  activity at 1 µM: 47%
  activity at 10 µM: 12%
[2]
  SD from Mean: −3.904 SD

## C[C@]12CC[C@H](O)C[C@H]1CC[C@@H]1[C@@H]2[C@H](O)C[C@]2(C)[C@@H](C3=CC(=O)OC3)CC[C@]12O [SARMENTOGENIN]
[6]
  activity at 1 µM: 53%
  activity at 10 µM: 24%
[2]; [7]
  SD from Mean: −3.539 SD

## O=C(NC1CCNCC1)c1n[nH]cc1NC(=O)c1c(Cl)cccc1Cl [AT7519]
[4]
  viability at 24 h: 50.3%

## CCCCCCCCCOc1ccc2[nH]cc(CCN)c2c1 [5-Nonyloxytryptamine]
[6]
  activity at 10 µM: 5%
[2]; [7]
  SD from Mean: −3.607 SD

## C[C@@H]1O[C@@H](O[C@H]2CC[C@]3(C=O)[C@H]4CC[C@]5(C)[C@@H](C6=CC(=O)OC6)CC[C@]5(O)[C@@H]4CC[C@]3(O)C2)[C@H](O)[C@H](O)[C@H]1O [CONVALLATOXIN]
[6]
  activity at 1 µM: 12%
  activity at 10 µM: 11%
[2]; [7]
  SD from Mean: −3.689 SD
[2]; [8]
  SD from Mean: −3.689 SD

## CCCCCCCCCOc1ccc2[nH]cc(CCN)c2c1 [ChemBridge ID# 5629242]
[1]
  Luc at 1 μm: 110
  Luc at 10 μm: 58
[2]; [7]
  SD from Mean: −3.609 SD

## O=c1[nH]c(=O)n([C@H]2C[C@H](O)[C@@H](CO)O2)cc1F [Floxuridine]
[4]
  viability at 24 h: 97.9%

## C[C@]12CC[C@H]3[C@@H](CC[C@]4(O)C[C@@H](O)CC[C@]34C=O)[C@@]1(O)CC[C@@H]2C1=CC(=O)OC1 [STROPHANTHIDIN]
[6]
  activity at 1 µM: 16%
  activity at 10 µM: 15%
[2]; [8]
  SD from Mean: −4.451 SD

## Cyanocobalamin
[1]
  Luc at 1 μm: 110
  Luc at 10 μm: 140
[2]; [7]
  SD from Mean: −2.681 SD
[2]; [8]
  SD from Mean: −2.681 SD

## CS(=O)(=O)Nc1ccc(Cc2noc(-c3ccc4[nH]cc(CCN)c4c3)n2)cc1 [L-694 247]
[1]
  Luc at 1 μm: 110
  Luc at 10 μm: 6
[2]; [7]
  SD from Mean: −3.156 SD
[2]; [8]
  SD from Mean: −3.156 SD

## COc1cc2ncn(-c3cc(OCc4ccccc4C(F)(F)F)c(C(N)=O)s3)c2cc1OC [GW843682X]
[4]
  viability at 24 h: 75.5%

## CO[C@H]1[C@H](O)[C@H](O[C@H]2CC[C@@]3(C=O)[C@H](CC[C@@H]4[C@@H]3CC[C@]3(C)[C@@H](C5=CC(=O)OC5)CC[C@]43O)C2)O[C@@H](C)[C@@H]1O [PERUVOSIDE]
[6]
  activity at 1 µM: 15%
  activity at 10 µM: 12%
[2]; [7]
  SD from Mean: −4.038 SD
[2]; [8]
  SD from Mean: −4.038 SD

## CC1=CC(=O)c2ccccc2C1=O [Menadione]
[6]
  activity at 10 µM: 35%
[2]; [7]
  SD from Mean: −3.434 SD

## CC[C@H]1CN2CCc3cc(OC)c(OC)cc3[C@@H]2C[C@@H]1C[C@H]1NCCc2cc(O)c(OC)cc21.Cl.Cl.O.O.O.O.O.O.O [Cephaeline dihydrochloride heptahydrate]
[1]
  Luc at 1 μm: 16
  Luc at 10 μm: 17
[2]; [7]
  SD from Mean: −4.055 SD
[2]; [8]
  SD from Mean: −4.055 SD

## CC(C)=CCc1c(O)cc2occ(-c3ccc4c(c3)OCO4)c(=O)c2c1O [DERRUBONE]
[6]
  activity at 1 µM: 11%
  activity at 10 µM: 15%
[2]; [7]
  SD from Mean: −3.621 SD
[2]; [8]
  SD from Mean: −3.621 SD

## CC(=O)O[C@H]1CC[C@@]2(C)[C@H](CC[C@@H]3[C@@H]2CC[C@]2(C)[C@@H](C4=CC(=O)OC4)[C@@H](OC(C)=O)C[C@]32O)C1 [GITOXIGENIN DIACETATE]
[6]
  activity at 1 µM: 27%
  activity at 10 µM: 21%
[2]; [7]
  SD from Mean: −4.261 SD
[2]; [8]
  SD from Mean: −4.261 SD

## Cc1cc(Nc2cc(CN3CCOCC3)c3nc(C)c(Cc4ccc(Cl)cc4F)n3n2)n[nH]1 [Gandotinib]
[4]
  viability at 24 h: 81.6%
[5]
  min SC luc: 67.19%

Source: patent US20260137707A1, “METHODS OF MODULATING ATXN2 EXPRESSION” (University of Utah Research Foundation, priority 2022, published 2026)
